Measurements from patent US9271971B2, “Pyrido[3,4-B]indoles and methods of use” (Medivation Technologies, Inc., priority 2009, dated 2016).

Tests used:
[1] = molecular target: T1, human recombinant adrenergic α2B receptor (Homo sapiens, UniProt P18089); assay: Adrenergic α2B radioligand binding assay; conditions: [3H]Rauwolscine specific binding; for inhibition at 1 µM: read-out: Percent Inhibition of ligand binding, Adrenergic (1 μM ligand conc.) α2B; for inhibition at 0.1 µM: read-out: Percent Inhibition of ligand binding, Adrenergic (0.1 μM ligand conc.) α2B
T1 construct: expressed in transfected cells; host or cells: Chinese hamster ovary (CHO-K1) cells
T1 sequence (P18089 1-450): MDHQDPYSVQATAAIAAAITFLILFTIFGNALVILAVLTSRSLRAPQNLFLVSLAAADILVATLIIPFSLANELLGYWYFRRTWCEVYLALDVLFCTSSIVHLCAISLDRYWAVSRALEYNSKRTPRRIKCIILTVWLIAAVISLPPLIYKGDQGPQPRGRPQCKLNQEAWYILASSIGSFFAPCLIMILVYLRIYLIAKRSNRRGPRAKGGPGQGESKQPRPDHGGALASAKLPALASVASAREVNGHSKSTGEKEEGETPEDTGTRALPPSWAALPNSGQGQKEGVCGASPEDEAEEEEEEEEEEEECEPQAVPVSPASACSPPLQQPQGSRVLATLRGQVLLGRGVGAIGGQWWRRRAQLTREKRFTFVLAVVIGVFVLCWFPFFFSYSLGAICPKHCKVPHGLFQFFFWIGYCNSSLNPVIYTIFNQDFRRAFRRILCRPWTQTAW
Protocol: To evaluate in radioligand binding assays the activity of compounds of the invention, human recombinant adrenergic α2B receptor expressed in Chinese hamster ovary (CHO-K1) cells [Uhlen, S et al., Eur J Pharmacol. (1998), 343(1):93] in a modified Tris-HCl buffer (50 mM Tris-HCl, pH 7.4, 12.5 mM MgCl2, 1 mM EDTA, 0.2% BSA) was used. Compounds of the invention were incubated with 2.5 nM [^3H]Rauwolscine for 60 min. at 25° C. Non-specific binding was estimated in the presence of 10 μM Prozosin. Receptor proteins were filtered and washed, the filters were then counted to determine [^3H]Rauwolscine specifically bound. Compounds were screened at 1 μM or lower, using 1% DMSO as vehicle. Compounds of the invention were tested in this biochemical assay. Biochemical assay results for representative compounds were presented as the percent inhibition of specific binding in Table 3.

[2] = molecular target: T2, human recombinant adrenergic α2A receptor (Homo sapiens, UniProt P08913); assay: Adrenergic α2A radioligand binding assay; conditions: [3H]MK-912 specific binding; for inhibition at 1 µM: read-out: Percent Inhibition of ligand binding, Adrenergic (1 μM ligand conc.) α2A; for inhibition at 0.1 µM: read-out: Percent Inhibition of ligand binding, Adrenergic (0.1 μM ligand conc.) α2A
T2 construct: expressed in transfected cells; host or cells: insect Sf9 cells
T2 sequence (P08913 1-465): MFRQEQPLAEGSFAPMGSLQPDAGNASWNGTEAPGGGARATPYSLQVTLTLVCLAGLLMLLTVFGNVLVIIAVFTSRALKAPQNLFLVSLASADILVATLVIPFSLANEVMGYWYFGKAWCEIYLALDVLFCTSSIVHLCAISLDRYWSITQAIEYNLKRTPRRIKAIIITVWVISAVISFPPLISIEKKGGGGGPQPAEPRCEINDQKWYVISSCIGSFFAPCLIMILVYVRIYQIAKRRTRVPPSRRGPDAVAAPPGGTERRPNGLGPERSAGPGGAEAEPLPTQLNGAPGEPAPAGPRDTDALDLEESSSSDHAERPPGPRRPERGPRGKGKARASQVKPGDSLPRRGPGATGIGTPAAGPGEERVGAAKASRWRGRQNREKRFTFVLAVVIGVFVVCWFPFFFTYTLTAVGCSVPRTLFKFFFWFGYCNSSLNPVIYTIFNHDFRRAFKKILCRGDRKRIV
Protocol: To evaluate in radioligand binding assays the activity of compounds of the invention, human recombinant adrenergic α2A receptor expressed in insect Sf9 cells [Uhlen, S et al. J. Pharmacol. Exp. Ther. (1994), 271:1558] in a modified Tris-HCl buffer (50 mM Tris-HCl, pH 7.4, 12.5 mM MgCl2, 2 mM EDTA) was used. Compounds of invention were incubated with 1 nM [^3H]MK-912 for 60 min. at 25° C. MK912 was (2S-trans)-1,3,4,5′,6,6′,7,12b-octahydro-1′,3′-dimethyl-spiro[2H-benzofuro[2,3-a]quinolizine-2,4′(1′H)-pyrimidin]-2′(3′H)-one hydrochloride Non-specific binding was estimated in the presence of 10 μM WB-4101 (2-(2,6-dimethoxyphenoxyethyl)aminomethyl-1,4-benzodioxane hydrochloride). Receptor proteins were filtered and washed, the filters were then counted to determine [^3H]MK-912 specifically bound. Compounds were screened at 1 μM or lower, using 1% DMSO as vehicle. Compounds of the invention were tested in this biochemical assay. Biochemical assay results for representative compounds were presented as the percent inhibition of specific binding in Table 3.

[3] = molecular target: human recombinant histamine H1 receptor (Homo sapiens, UniProt P35367); assay: Histamine H1 radioligand binding assay; conditions: [3H]Pyrilamine specific binding; for inhibition at 1 µM: read-out: Percentage Inhibition, Histamine Binding (1 μM) H1
Sequence of human recombinant histamine H1 receptor (P35367 whole entry): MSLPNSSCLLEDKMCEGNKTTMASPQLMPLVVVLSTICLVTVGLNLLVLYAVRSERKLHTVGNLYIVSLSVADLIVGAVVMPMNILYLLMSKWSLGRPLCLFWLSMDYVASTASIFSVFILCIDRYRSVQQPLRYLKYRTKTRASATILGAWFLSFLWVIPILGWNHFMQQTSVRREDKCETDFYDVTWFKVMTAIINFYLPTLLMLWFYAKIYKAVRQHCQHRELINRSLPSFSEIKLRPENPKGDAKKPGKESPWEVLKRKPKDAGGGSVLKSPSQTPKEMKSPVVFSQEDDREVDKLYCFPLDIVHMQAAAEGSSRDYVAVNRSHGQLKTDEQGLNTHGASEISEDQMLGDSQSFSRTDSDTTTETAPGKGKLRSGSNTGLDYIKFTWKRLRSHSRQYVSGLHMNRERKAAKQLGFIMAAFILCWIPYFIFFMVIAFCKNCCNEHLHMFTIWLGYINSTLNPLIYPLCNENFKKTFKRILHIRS
Protocol: To evaluate in radioligand binding assays the activity of compounds of the invention, human recombinant histamine H1 receptor expressed in Chinese hamster ovary (CHO) cells [De Backer, M. D. et al., Biochem. Biophys. Res. Comm. (1993), 197(3):1601] in a modified Tris-HCl buffer (50 mM Tris-HCl, pH 7.4, 2 mM MgCl2, 100 mM NaCl, 250 mM Sucrose) was used. Compounds of the invention were incubated with 1.2 nM [^3H]Pyrilamine for 180 min. at 25° C. Non-specific binding was estimated in the presence of 1 μM pyrilamine. Receptor proteins were filtered and washed, the filters were then counted to determine [^3H]Pyrilamine specifically bound. Compounds were screened at 1 μM or lower, using 1% DMSO as vehicle. Biochemical assay results are presented as the percent inhibition of specific binding in Table 2.

[4] = molecular target: T3, human recombinant serotonin (5-Hydroxytryptamine) 5-HT6 receptor (Homo sapiens, UniProt P50406); assay: Serotonin 5-HT6 radioligand binding assay; conditions: [3H]LSD specific binding; for inhibition at 1 µM: read-out: Percent Inhibition of ligand binding, Serotonin (1 μM ligand concentration) 5-HT6
T3 construct: expressed in transfected cells; host or cells: human HeLa cells
T3 sequence (P50406 whole entry): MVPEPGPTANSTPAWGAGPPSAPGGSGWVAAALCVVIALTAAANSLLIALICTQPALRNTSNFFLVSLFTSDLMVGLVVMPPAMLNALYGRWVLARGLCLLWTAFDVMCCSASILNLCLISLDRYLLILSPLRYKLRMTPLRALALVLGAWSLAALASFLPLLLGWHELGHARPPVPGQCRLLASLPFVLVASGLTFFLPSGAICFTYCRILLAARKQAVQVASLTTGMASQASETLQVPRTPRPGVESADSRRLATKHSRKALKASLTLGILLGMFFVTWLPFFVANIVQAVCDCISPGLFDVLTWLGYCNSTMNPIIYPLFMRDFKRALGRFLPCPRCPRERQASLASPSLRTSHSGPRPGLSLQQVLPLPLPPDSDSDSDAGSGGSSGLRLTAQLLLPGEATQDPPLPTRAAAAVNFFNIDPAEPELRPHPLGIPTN
Protocol: To evaluate in radioligand binding assays the activity of compounds of the invention, human recombinant serotonin (5-Hydroxytryptamine) 5-HT6 receptor expressed in human HeLa cells [Monsma, F. J. Jr et al., Mol. Pharmacol. (1993), 43:320] in a modified Tris-HCl buffer (50 mM Tris-HCl, pH 7.4, 150 mM NaCl, 2 mM Ascorbic Acid, 0.001% BSA) was used. Compounds of the invention were incubated with 1.5 nM [3H]Lysergic acid diethylamide (LSD) for 120 min. at 37° C. Non-specific binding was estimated in the presence of 5 μM Serotonin (5-HT). Receptor proteins were filtered and washed, the filters were then counted to determine[3H]LSD specifically bound. Compounds were screened at 1 μM or lower, using 1% DMSO as vehicle. Biochemical assay results are presented as the percent inhibition of specific binding in Table 4.

SMILES | inhibition at 1 µM ([1]; 1 μM) | inhibition at 1 µM ([2]; 1 μM) | Percentage Inhibition, Histamine Binding (1 μM) H1 [3] | inhibition at 1 µM [3] | inhibition at 1 µM [4] | inhibition at 0.1 µM [1] | inhibition at 0.1 µM [2] | Percent Inhibition of ligand binding, Adrenergic (1 μM ligand conc.) α2B ([1]; 1 μM) | Percent Inhibition of ligand binding, Adrenergic (1 μM ligand conc.) α2A ([2]; 1 μM) | Percent Inhibition of ligand binding, Serotonin (1 μM ligand concentration) 5-HT6 [4]
C/C(=C\n1c2c(c3cc(C)ccc31)C1CCN(C2)C1)c1ccc(F)cc1 (stereo not shown) [Compound 22] | 95% | 93% | 58% | 52% | 102% |  |  |  |  | 
Cc1ccc2c(c1)c1c(n2CC(=O)NC2CCCCC2)CN2CCC1C2 (stereo not shown) [Compound 23] | -6% | -13% |  | 13% | 4% |  |  |  |  | 
Cc1ccc2c(c1)c1c(n2CC(=O)N2CCNCC2)CN2CCC1C2 (stereo not shown) [Compound 24] | -4% | 4% |  | 5% | 5% |  |  |  |  | 
Cc1ccc2c(c1)c1c(n2CC(=O)N2CCC(C)CC2)CN2CCC1C2 (stereo not shown) [Compound 25] | -17% | -7% |  | 30% | -2% |  |  |  |  | 
Cc1ccc2c(c1)c1c(n2CC(=O)N2CCOCC2)CN2CCC1C2 (stereo not shown) [Compound 26] | 7% | -4% |  | 17% | 4% |  |  |  |  | 
Cc1ccc2c(c1)c1c(n2CC(=O)N(C)C)CN2CCC1C2 (stereo not shown) [Compound 27] | -15% | 5% |  | 10% | 5% |  |  |  |  | 
Cc1ccc2c(c1)c1c(n2CC(=O)c2ccc(F)cc2)CN2CCC1C2 (stereo not shown) [Compound 28] | 45% | 86% |  | 64% | 15% |  |  |  |  | 
Cc1ccc2c(c1)c1c(n2CC(=O)c2ccc(Cl)cc2)CN2CCC1C2 (stereo not shown) [Compound 29] | 58% | 89% |  | 56% | 32% |  |  |  |  | 
Cc1ccc2c(c1)c1c(n2CCc2ccncc2)CN2CCC1C2 (stereo not shown) [Compound 30] | 76% | 84% |  | 76% | 33% |  |  |  |  | 
Cc1ccc2c(c1)c1c(n2CC(O)c2ccc(F)cc2)CN2CCC1C2 (stereo not shown) [Compound 31] | 79% | 41% |  | 42% | 46% |  |  |  |  | 
C/C(=C\n1c2c(c3cc(C)ccc31)C1CCN(C2)C1)c1ccc(Cl)cc1 (stereo not shown) [Compound 32] | 98% | 96% |  | 85% | 97% | 56% | 45% |  |  | 
C/C(=C\n1c2c(c3cc(C)ccc31)C1CCN(C2)C1)c1ccc(Cl)cc1Cl (stereo not shown) [Compound 33] | 73% | 66% | 76% |  | 35% | 9% | 13% |  |  | 
C/C(=C\n1c2c(c3cc(C)ccc31)C1CCN(C2)C1)c1ccc(Cl)cc1Cl (stereo not shown) [Compound 34] |  |  | 34% |  |  |  |  | 55% | 48% | 21%
Cc1ccc2c(c1)c1c(n2C(=O)Cc2ccc(Cl)cc2)CN2CCC1C2 (stereo not shown) [Compound 36] |  |  |  | 45% | 38% | 13% | 24% |  |  | 
C/C(=C\n1c2c(c3cc(C)ccc31)C1CCN(C2)C1)c1ccccc1F (stereo not shown) [Compound 38] |  |  |  | 38% | 58% | 25% | 3% |  |  | 
C/C(=C\n1c2c(c3cc(C)ccc31)C1CCN(C2)C1)c1ccncc1 (stereo not shown) [Compound 44] |  |  |  | 23% | 97% | 9% | -5% |  |  | 
COc1ccc(/C(C)=C/n2c3c(c4cc(C)ccc42)C2CCN(C3)C2)cc1 (stereo not shown) [Compound 45] |  |  |  | 26% | 80% | 15% | 4% |  |  | 
